Laboratory results published in ChEMBL document CHEMBL3044603, “In search of new herbicidal inhibitors of the non-mevalonate pathway” (Pest Manag Sci, 2013).
Activity calls are given as the source filed them. The rule behind the calls is not given here.

Legend:
[1] = biological target: T1, 4-diphosphocytidyl-2-C-methyl-D-erythritol kinase, chloroplastic/chromoplastic (Solanum lycopersicum, UniProt P93841); assay: Inhibition of Solanum lycopersicum (tomato) IspE
T1 sequence (P93841 whole entry): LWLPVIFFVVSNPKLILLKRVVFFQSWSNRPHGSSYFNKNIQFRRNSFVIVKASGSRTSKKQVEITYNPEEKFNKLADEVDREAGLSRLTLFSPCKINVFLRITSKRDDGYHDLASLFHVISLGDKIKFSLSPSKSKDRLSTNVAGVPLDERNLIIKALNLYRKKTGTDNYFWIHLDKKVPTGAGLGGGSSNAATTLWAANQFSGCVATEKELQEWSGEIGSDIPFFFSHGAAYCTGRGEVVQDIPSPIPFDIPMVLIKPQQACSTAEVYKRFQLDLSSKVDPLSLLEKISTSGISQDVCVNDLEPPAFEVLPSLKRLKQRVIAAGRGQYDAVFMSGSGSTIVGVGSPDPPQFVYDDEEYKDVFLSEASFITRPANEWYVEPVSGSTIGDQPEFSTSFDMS

Lemna minor [2] = assay: Herbicidal activity against Lemna minor (common duckweed) assessed as decrease in chlorophyll fluorescence at 56 mg/l measured for 4 days by picture analysis relative to control; format: functional, organism-based
Lemna minor [3] = assay: Herbicidal activity against Lemna minor (common duckweed) assessed as growth inhibition at 56 mg/l measured for 6 days by picture analysis relative to control; format: functional, organism-based
[4] = biological target: T2, 1-deoxy-D-xylulose 5-phosphate reductoisomerase, chloroplastic (Arabidopsis thaliana, UniProt Q9XFS9); assay: Inhibition of Arabidopsis thaliana IspC expressed in Escherichia coli after 40 min by spectrophotometric analysis
T2 sequence (Q9XFS9 whole entry): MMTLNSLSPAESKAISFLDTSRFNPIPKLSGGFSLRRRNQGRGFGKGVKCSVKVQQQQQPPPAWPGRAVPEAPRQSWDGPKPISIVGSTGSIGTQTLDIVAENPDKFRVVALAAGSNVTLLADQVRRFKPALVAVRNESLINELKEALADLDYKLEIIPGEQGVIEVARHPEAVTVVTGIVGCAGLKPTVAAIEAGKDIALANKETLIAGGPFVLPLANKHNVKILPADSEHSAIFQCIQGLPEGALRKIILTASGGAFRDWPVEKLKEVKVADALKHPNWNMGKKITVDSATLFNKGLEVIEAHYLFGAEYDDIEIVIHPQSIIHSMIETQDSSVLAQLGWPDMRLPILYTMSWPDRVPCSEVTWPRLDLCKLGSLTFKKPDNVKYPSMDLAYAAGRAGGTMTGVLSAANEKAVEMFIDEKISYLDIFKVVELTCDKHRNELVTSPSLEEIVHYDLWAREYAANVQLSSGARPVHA

[5] = biological target: T3, 1-deoxy-D-xylulose-5-phosphate synthase, chloroplastic (Arabidopsis thaliana, UniProt Q38854); assay: Inhibition of Arabidopsis thaliana N-terminal GST-tagged DXS expressed in Escherichia coli BL21 GOLD (DE) using glyceraldehydephosphate and pyruvate as substrate after 90 min by spectrophotometric analysis
T3 sequence (Q38854 whole entry): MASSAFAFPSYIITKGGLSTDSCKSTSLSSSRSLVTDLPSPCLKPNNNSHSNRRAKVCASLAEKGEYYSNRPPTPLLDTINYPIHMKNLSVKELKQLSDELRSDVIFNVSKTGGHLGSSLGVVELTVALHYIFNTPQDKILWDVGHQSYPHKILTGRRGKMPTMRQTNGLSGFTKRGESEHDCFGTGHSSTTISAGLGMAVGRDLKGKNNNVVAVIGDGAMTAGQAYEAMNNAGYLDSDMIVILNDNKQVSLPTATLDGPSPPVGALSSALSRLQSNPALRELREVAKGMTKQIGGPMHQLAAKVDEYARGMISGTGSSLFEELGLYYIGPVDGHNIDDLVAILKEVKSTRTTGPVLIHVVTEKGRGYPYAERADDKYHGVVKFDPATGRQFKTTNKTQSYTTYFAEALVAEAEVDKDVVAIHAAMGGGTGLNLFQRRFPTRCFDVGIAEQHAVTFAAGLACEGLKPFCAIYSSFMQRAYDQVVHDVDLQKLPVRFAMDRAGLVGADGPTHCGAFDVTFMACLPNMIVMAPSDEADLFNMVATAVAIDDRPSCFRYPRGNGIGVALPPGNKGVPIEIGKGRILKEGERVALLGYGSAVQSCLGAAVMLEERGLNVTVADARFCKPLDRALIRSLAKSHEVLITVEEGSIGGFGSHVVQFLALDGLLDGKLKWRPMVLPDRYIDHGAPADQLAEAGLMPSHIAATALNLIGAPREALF

[6] = biological target: T4, 2-C-methyl-D-erythritol 2,4-cyclodiphosphate synthase, chloroplastic (Arabidopsis thaliana, UniProt Q9CAK8); assay: Inhibition of Arabidopsis thaliana IspF expressed in Escherichia coli XL1-Blue after 30 min by spectrophotometric analysis
T4 sequence (Q9CAK8 whole entry): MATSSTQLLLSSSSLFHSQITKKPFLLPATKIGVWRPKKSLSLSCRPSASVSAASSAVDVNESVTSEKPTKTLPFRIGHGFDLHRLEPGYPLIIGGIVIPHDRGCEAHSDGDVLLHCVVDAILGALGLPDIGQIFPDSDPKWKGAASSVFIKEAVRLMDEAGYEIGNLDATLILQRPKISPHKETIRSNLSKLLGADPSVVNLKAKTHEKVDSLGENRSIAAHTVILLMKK

[7] = biological target: T5, 2-C-methyl-D-erythritol 4-phosphate cytidylyltransferase, chloroplastic (Arabidopsis thaliana, UniProt P69834); assay: Inhibition of Arabidopsis thaliana IspD
T5 sequence (P69834 whole entry): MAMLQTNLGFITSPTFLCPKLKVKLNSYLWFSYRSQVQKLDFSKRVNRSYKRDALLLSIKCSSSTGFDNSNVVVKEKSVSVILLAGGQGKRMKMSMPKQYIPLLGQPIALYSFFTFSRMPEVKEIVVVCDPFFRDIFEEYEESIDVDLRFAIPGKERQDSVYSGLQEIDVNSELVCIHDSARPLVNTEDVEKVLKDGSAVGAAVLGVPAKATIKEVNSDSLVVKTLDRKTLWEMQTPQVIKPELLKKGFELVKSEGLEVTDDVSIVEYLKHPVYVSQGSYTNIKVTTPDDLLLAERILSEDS

[8] = biological target: T6, 4-diphosphocytidyl-2-C-methyl-D-erythritol kinase (Escherichia coli (strain K12), UniProt P62615); assay: Inhibition of Escherichia coli IspE by spectrophotometric analysis
T6 sequence (P62615 whole entry): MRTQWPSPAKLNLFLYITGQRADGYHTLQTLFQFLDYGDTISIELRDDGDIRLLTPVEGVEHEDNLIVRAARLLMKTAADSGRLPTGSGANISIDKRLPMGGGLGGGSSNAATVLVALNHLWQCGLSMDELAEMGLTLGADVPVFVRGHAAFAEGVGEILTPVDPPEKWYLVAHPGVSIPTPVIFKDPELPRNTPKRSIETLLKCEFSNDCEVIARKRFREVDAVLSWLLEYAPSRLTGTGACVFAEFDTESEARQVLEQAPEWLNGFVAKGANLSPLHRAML

Row | Compound | IC50 [5] | Activity (Lemna minor [2]) | growth inhibition (GI) (Lemna minor [3]) | other results
1 | NC1=N/C(=N\NC(=O)c2cc(Cl)ccn2)c2ccc3ccccc3c21 |  | Active | Active | IC50 [1]: 7.2 µM
2 | CC(C)Nc1nc(Nc2ccccc2)nc(Cl)c1-c1c(F)cccc1Cl |  | inactive | inactive | IC50 [4]: 34 µM
3 | O=CN(O)CCCP(=O)(O)O [FOSMIDOMYCIN] |  |  |  | IC50 [4]: 0.1 µM
4 | CCOC(=O)C1=C(C)N=c2s/c(=C\c3cc(Br)c(O)c(Br)c3)c(=O)n2C1c1ccc(OC)cc1 (configuration not stated) |  |  |  | IC50 [6]: 3.2 µM
5 | CCOc1ccc(-c2onc(C(F)(F)F)c2-c2ccc(OC)cc2)c(O)c1 | 61 µM | Active | Active | 
6 | CC1(C)C(=O)ON(Cc2ccccc2Cl)C1=O [KETOCLOMAZONE] | 0.08 µM |  |  | 
7 | NC1=N/C(=N\NC(=O)Cc2cccc3ccccc23)c2ccccc21 |  | inactive | inactive | IC50 [1]: 54 µM
8 | COc1ccc2nc(NC(=O)COc3ccc(-c4ccccc4)cc3)sc2c1 |  | inactive | inactive | IC50 [7]: 6.3 µM
9 | Oc1c(Cc2ccccc2)c(Cl)nc2ncnn12 |  | Active | Active | 
10 | COc1ccc2nc(NC(=O)c3cc(-c4ccccc4O)n[nH]3)sc2c1 |  | inactive | inactive | IC50 [7]: 1.8 µM
11 | N#Cc1cnn2c(O)c(Cc3ccccc3)c(Cl)nc12 |  |  |  | IC50 [7]: 0.035 µM
12 | Nc1ccn([C@@H]2O[C@H](CNC(=O)CCc3nc4ccccc4[nH]3)[C@@H](O)[C@H]2O)c(=O)n1 |  |  |  | IC50 [8]: 1.7 µM
13 | CCC1(C)Cc2c(sc3nc(SC)nc(O)c23)CS1 (configuration not stated) |  | inactive | inactive | IC50 [4]: 59 µM

Now from value to compound, other results behind:

Row | IC50 [5] | Compound | Activity (Lemna minor [2]) | growth inhibition (GI) (Lemna minor [3]) | other results
14 | 32 µM | COc1ccc(-c2onc(C(F)(F)F)c2-c2ccc(Br)cc2)c(O)c1 | Active | Active | 
15 | 49 µM | COc1ccc(/C=N/Nc2nc3ccccc3[nH]2)cc1OCc1ccccc1 | inactive | inactive | 
16 | 33 µM | O=C(O)c1ccc(-c2ccc(/C=N/Nc3nc4ccccc4s3)o2)cc1 | inactive | inactive | 
